Reference: patent US20040220268A1, “Compound that directly stimulates phospholipase C activity” (priority 2003, published 2004)

How the values were obtained:
[1] = system: Gq-proteins; assay: [Ca2+]i in RGS2-GFP inducible HeLa cells; assay type: cell-based, human; conditions: histamine 100 μM, m-3M3FBS 25 μM
Experimental: (§1) Isolated neutrophils were preincubated with PTX (1 μg/ml) or vehicle for 90 min at 37° C. and stimulated with m-3M3FBS, FMLF, or ATP at concentrations of 25, 1, and 500 μM, respectively. Changes in the excitation ratios at 340 nm/380 nm were monitored. Data are presented as means ±S. E. M. of two independent experiments (A). cAMP levels were determined by a radio receptor assay. Prepared cells were treated with m-3M3FBS (25 μM) or histamine (100 μM) and then lysed with Tris-EDTA. After removing the supernatant, [ 3H] cAMP and protein were added, and the amount of [^3H] cAMP-protein complex was determined. The amount of unlabeled cAMP (in the sample) was then calculated by measuring the protein-bound radioactivity. Data are presented as means ±S. E. M. of two independent experiments (B). […] RGS2-GFP inducible HeLa cells were cultured for 48 h in the absence or in the presence of tetracycline and loaded with fura-2. Cells were treated with histamine (100 μM) or m-3M3FBS (25 μM), and changes in the 340 nm/380 nm ratios were monitored and converted to [Ca^2+]i values. The results shown are representative of three independent experiments (C).
pRevTRE vector containing the cDNA of rat RGS2-GFP was transfected into Hela Tet-off cells using Lipofectamine. Selection was performed in DMEM supplemented with 2 μg/ml of tetracycline and 500 μg/ml of hygromycin B. Two weeks later, several well-isolated colonies were picked out and analyzed by western blotting to determine the expression level of RGS2 in the absence of tetracycline. For these experiments, HeLa cells were cultured for 48 h in the absence or in the presence of tetracycline.
Freshly prepared human neutrophils were incubated in serum free RPMI 1640 medium with 3 μM of fura-2/AM at 37° C. for 30 min with continuous stirring. After washing with serum free RPMI 1640 medium, the cells were suspended in serum free RPMI containing 250 μM of sulfinpyrazone to prevent dye leakage. About 2×10^6 cells were suspended in Ca^2+ free Locke's solution (158.4 mM NaCl, 5.6 mM KCl, 1.2 mM MgCl2, 5 mM HEPES pH 7.3, 10 mM glucose, and 0.2 mM EGTA) for each measurement. Changes in the fluorescence ratio were measured at an emission wavelength of 500 nm for dual excitation wavelengths at 340 nm and 380 nm. The calibration of the fluorescence ratio versus [Ca^2+]i was performed as described by Grynkiewicz (Grynkiewicz et al., 1985).

[2] = system: PC12 cells; assay: [Ca2+]i measurement with fura-2; assay type: cell-based, rat; conditions: 25 μM
Experimental: (§2) Neutrophils and HL60, and differentiated HL60, U937, NIH3T3, and PC12 cells were loaded with fura-2 and then stimulated with 25 μM of m-3M3FBS. Changes in the 340 nm/380 nm excitation ratio were monitored, and converted to [Ca^2+]i levels. Data are presented as means ±S. E. M. of three independent experiments.
(§3) U937 (human histiocytic lymphoma cells), HL60 (human promyelocytic leukemia cells), NIH3T3 (NIH Swiss mouse embryo fibroblasts), and PC12 (rat adrenal pheochromocytoma cells) were obtained from the American Type Culture Collection (Rockville, Md.) and HeLa (human adenocarcinoma cells) Tet-off cells were purchased from Clontech (Palo Alto, Calif., U.S.A.) and maintained as recommended. The cells were maintained at about 1×10^6 cells/ml under standard incubator conditions (humidified atmosphere, 95% air, 5% CO2, 37° C.). […]
(§4) Freshly prepared human neutrophils were incubated in serum free RPMI 1640 medium with 3 μM of fura-2/AM at 37° C. for 30 min with continuous stirring. […] Changes in the fluorescence ratio were measured at an emission wavelength of 500 nm for dual excitation wavelengths at 340 nm and 380 nm. The calibration of the fluorescence ratio versus [Ca^2+]i was performed as described by Grynkiewicz (Grynkiewicz et al., 1985).

[3] = system: NIH3T3 cells; assay: [Ca2+]i measurement with fura-2; assay type: cell-based, mouse; conditions: NIH 3T3; 25 μM
Experimental: as §2, §3, §4

[4] = system: PLC; assay: In vitro PLC activity in the presence or absence of Ca2+; assay type: biochemical; conditions: data not shown
From the text: Moreover, the primary structures of the several different isoforms of PLC are known (Rhee, 2001; Noh et al., 1995). PLC β and PLC δ have an NH2-terminal PH domain, an EF-hand, X and Y domains, known to form the catalytic core, and a COOH-terminal C2 domain. In addition, PLC β has a long C-terminal tail beyond the C2 domain (Rhee, 2001; Noh et al., 1995; Rhee and Bae, 1997). PLC γ has additional three SH domains between the X and Y domains, but no long COOH-terminal tail (Rhee, 2001; Noh et al., 1995; Rhee and Bae, 1997). […] For the proper activation of PLC enzyme, calcium has been regarded as an essential requirement (Rhee and Bae, 1997). Calcium is required not only for the functioning of C2 domain that mediates the Ca^2+-dependent binding to lipid vesicles but also for the catalytic activity of the enzyme (Rhee and Bae, 1997). […] An investigation of the effect of m-3M3FBS on the lipase activity of an X and Y domain mixture will be required to confirm the possible action of m-3M3FBS on the two catalytic cores. Since m-3M3FBS is the first compound that directly stimulates PLC activity, the elucidation of the action mechanism of the compound will give useful information on the basic molecular mechanisms of the activation of PLC enzymes.

[5] = system: Gs-proteins; assay: Cyclic AMP generation (radio receptor assay); assay type: cell-based; conditions: human neutrophils; m-3M3FBS 25 μM, histamine 100 μM
Experimental: as §1

[6] = system: human neutrophils; assay: Superoxide anion generation (lucigenin chemiluminescence); assay type: cell-based; conditions: up to 50 μM
Experimental: Superoxide anion generation was measured by monitoring chemiluminescence in the presence of the chemiluminogenic probe lucigenin. Prepared neutrophils were stimulated with m-3M3FBS or o-3M3FBS at 2.5, 5, 10, 15, 20, 25, and 50 μM and lucigenin (40 μM) was then added. Luminescence changes were measured using a Luminoskan. Data are presented as means ±S. E. M. of four independent experiments (A). Structures of m-3M3FBS (2,4,6-Trimethyl-N-(meta 3-trifluoromethyl-phenyl)-benzenesulfonamide) and o-3M3FBS (2,4,6-Trimethyl-N-(ortho 3-trifluoromethyl-phenyl)-benzenesulfonamide) (B).
Superoxide anion production was measured by monitoring chemiluminescence in the presence of the chemiluminogenic probe lucigenin (Bureau et al., 2001). Prepared neutrophils were plated in 96 wells and stimulated with chemicals at concentrations of 2.5, 5, 10, 15, 20, 25 and 50 μM, and then the lucigenin (40 μM) was added. Luminescence, measured with a Luminoskan (Labsystems, Inc., Helsinki, Finland), was integrated over 10 s intervals for a total of 3 min at room temperature.

SMILES | [Ca2+]i increase ([1]; HeLa cells in the presence of tetracycline (RGS2 not induced)) | effect of RGS2 induction on the induced calcium response ([1]; HeLa cells overexpressing RGS2) | calcium increase [2] | calcium increase [3] | in vitro PLC activity [4] | intracellular cAMP level [5] | effect on superoxide generation [6]
Cc1cc(C)c(S(=O)(=O)Nc2cccc(C(F)(F)F)c2)c(C)c1 [m-3M3FBS, 2,4,6-Trimethyl-N-(meta 3-trifluoromethyl-phenyl)-benzenesulfonamide] | caused [Ca^2+]i increases | unaffected | induced calcium increase | induced calcium increase | stimulated | didn't change the cAMP level | 
Cc1cc(C)c(S(=O)(=O)Nc2ccccc2C(F)(F)F)c(C)c1 [o-3M3FBS, 2,4,6-Trimethyl-N-(ortho 3-trifluoromethyl-phenyl)-benzenesulfonamide, reference compound] |  |  |  |  |  |  | did not affect
